Experiments:
pre-term lamb BPD model = test: Pre-term lamb BPD model: respiratory severity score; assay type: in vivo
Excerpt: A unique PT lamb model, developed by Dr. Albertine (University of Utah), was used to emulate the clinical setting for PT human infants with respiratory failure related to premature birth before the lungs are mature enough to support extra-uterine life. Both the PT lamb model and PT human infants are whole-organism physiological beings that have the setting of PT birth and prolonged ventilation support with oxygen-rich gas because of respiratory failure related to lung structural and functional immaturity, including surfactant deficiency. Ventilation support with oxygen-rich gas is for days, weeks, months, and is associated with co-morbidities of the brain, liver, distal ileum, and kidney injury, and inadequate nutrition and poor postnatal growth. This PT lamb model for BPD continues to provide mechanistic insights during the evolution of BPD (Joss-Moore, Metcalfe et al. 2010), development of multiple-organ dysfunction (Albertine 2012, Abdullah, Seidel et al. 2016), and long-term structural and functional impairments (Dahl, Bowen et al. 2018).
A dose range-finding study was conducted with the goal of treating two PT lambs with either a vehicle control or low, mid, and high doses of AVR-48 (compound 8) by twice daily intravenous infusions during 6 to 7 days of mechanical ventilation, followed by transition to noninvasive respiratory support (NIS) for 3 days, for a total of 10 days of management of these PT lambs. Compound 8 was not given during the period of noninvasive respiratory support to assess short-term persistence of effect of compound 8. The PK and PD parameters for compound 8 were also determined.
The modified PT lamb model used 6 d to 7 d of mechanical ventilation for respiratory management to identify temporal pathogenesis of the disease. […]
A total 9 lambs were used for this study. […] The PK parameters were calculated following both non-Compartmental Pharmacokinetic Modeling and population Pharmacokinetic Modeling as described by Roberts et al previously (Roberts, Stockmann et al. 2016). […] The blood samples also were analyzed for hematology and liver enzymes. […]

hPBMC = test: Secreted IL-10 and LPS induced TNF-α in hPBMC by ELISA; assay type: cell-based, human
Method: FIG. 26 C, Pretreatment (24 h) of AVR-48 to hPBMC followed by 6h of treatment with LPS (25 ng/ml) decreased the secreted TNF-α production in hPBMC cell supernatants. N=3.**p<0.01, ***p<0.001. One-way ANOVA.

[1] = Oral PK of nanomilled formulations in adult SD rats; assay type: in vivo, rat; conditions: oral formulation, 100 mg/kg
Method: The test item, the stabilizer (HPC-SSL) and the surfactant (SDS) were accurately weighed and transferred in a 15-mL amber glass jar charged with 6 mL of yttrium-stabilized zirconia beads (0.8 mm). The suspension was brought to final weight with water in order to achieve the desired final concentration. The formulation was mixed using a vortex for at least 1 minute and then homogenized using a roller mill (Unitized Jar Mill, Model 755 RMV from U.S. Stoneware (purchased from Fisher Scientific Canada cat #08-381-1) at 50 rpm for 48 hours.
For the animal study, the suspensions prepared at 50 mg/mL were diluted to 10 mg/mL using a blank vehicle prepared using the same proportions of excipients as those indicated in Table I. By diluting the concentrated suspension of AVR-84 a clear solution was obtained whereas for AVR-48 the solution was a homogeneous cloudy solution.
Animals and dosing: The male SD rats (N=3) were obtained from Charles River. Each animal was weighed before the administration of the test item. […] At the specified time points, t=15′, 30′, 1 h, 2 h, 3 h, 4 h, 6 h, 8 h and 24 h (N=3), blood (100 μL) was collected via the saphenous vein using MINIVETTE® POCT K3-EDTA. The blood samples were centrifuged for 10 min at 965 g and 4° C. within 30 min of collection, to obtain plasma. Plasma samples were kept frozen at −80° C. The plasma samples were thawed on ice and kept on ice during the sample preparation. Thirty μL of plasma samples were mixed with 75 μL of precipitation solution (80% acetonitrile and 20% methanol containing IS) was added. Samples were mixed and centrifuged at 3500 rpm for 10 min at 4° C. Forty μL of the supernatant was transferred to a 96 well plate, and 80 μL of water+0.1% formic acid was added and analyzed using the in house developed HPLC method.

## CC(=O)N[C@@H]1C(Oc2ccc([N+](=O)[O-])cc2)OC(CO)C(O)C1O (stereo partly drawn) [AVR-48]
pre-term lamb BPD model; 3.0 mg/kg IV, n=4, lowest RSS
  Respiratory Severity Score (RSS): 2.4
pre-term lamb BPD model; 1.0 and 3.0 mg/kg IV, 2/d, 7 days
  Respiratory Severity Score (RSS) vs placebo: Significant improvement
pre-term lamb BPD model; IV twice daily
  highest efficacious dose (RSS): 3.0 mg/kg
hPBMC; 24 h pretreatment followed by 6 h LPS (25 ng/ml)
  secreted TNF-α production: decreased
hPBMC; hPBMC supernatant, 24 h post treatment
  secreted IL-10 levels: dose dependently increased
[1]; male, SD (Sprague-Dawley), rat, plasma, adult rats n=3 (repeat of figure legend), read-out: Cmax
  Cmax: 3.64 ± 0.66 µM
[1]; male, SD (Sprague-Dawley), rat, plasma, adult rats n=3, read-out: Tmax
  Tmax: 42 ± 18 min
[1]; male, SD (Sprague-Dawley), rat, plasma, adult rats n=3, read-out: half-life (T v2) (converted)
  half-life: 36 ± 24 min
[1]
  plasma concentration profile: linear decline in drug concentration

— patent US12440471B2, “Compositions and methods for the treatment of bronchopulmonary dysplasia (BPD) and BPD-associated pulmonary hypertension” (AyuVis Research, Inc., priority 2021, dated 2025)
